17 compounds from ChEMBL document CHEMBL3046811, “Syntheses and in vitro biological screening of 1-aryl-10H-[1,2,4]triazolo[3,4:3,4][1,2,4]triazino[5,6-b]indoles” (Med Chem Res, 2013) can be followed below.

The subject of series [1] is Bovine viral diarrhea virus 1. Description: Antiviral activity against Bovine viral diarrhea virus 1 infected bovine MDBK cells assessed as protection against virus-induced cytopathogenicity treated 1 hr after viral infection measured after 3-4 days by MTT method. In kind it is functional, organism-based. The conditions noted are these: Bovine viral diarrhea virus isolates and strains.

The next series concerns Human alphaherpesvirus 1. The experiment in a line: Antiviral activity against Human herpesvirus 1 infected African green monkey Vero 76 cells assessed as reduction in plaque number treated after viral infection measured after 3 days by plaque reduction assay. Type of series: functional, organism-based. The conditions noted are these: Human alphaherpesvirus 1, Vero, 72 h.

The subject of the next series is Yellow fever virus. The experiment in a line: Antiviral activity against Yellow fever virus infected Syrian hamster BHK-21 cells assessed as protection against virus-induced cytopathogenicity treated 1 hr after viral infection measured after 3-4 days by MTT method. Type of series: functional, organism-based.
The test system of series [2] is Respiratory syncytial virus. Description: Antiviral activity against Respiratory syncytial virus infected African green monkey Vero 76 cells assessed as reduction in plaque number treated after viral infection measured after 5 days by plaque reduction assay. The conditions noted are these: human respiratory syncytial virus, 120 h. Type of series: functional, organism-based.

Series [3] can be described thus: Cytotoxicity against Mesocricetus auratus (Syrian golden hamster) BHK21cells assessed as inhibition of cell viability after 48 to 120 hr by MTT assay. Type of series: cell-based. To be noted: BHK-21 cells.
In another series the test system is Coxsackievirus B2. The experiment in a line: Antiviral activity against Human coxsackievirus B2 infected in African green monkey Vero 76 cells assessed as reduction in plaque number treated after viral infection measured after 3 days by plaque reduction assay. In kind it is functional, organism-based. The conditions noted are these: Enterovirus B, 72 h.
The nature of series [4]: Cytotoxicity against Homo sapiens (human) MT4 cells assessed as inhibition of cell vaibility after 96 hr by MTT assay. Type of series: cell-based.
Series [5] is described as follows: Cytotoxicity against Bos taurus (bovine) MDBK cells assessed as inhibition of cell viability after 48 to 120 hr by MTT assay. Type of series: cell-based. The conditions noted are these: cattle.
In series [6] the test system is Human immunodeficiency virus 1. Description: Antiviral activity against Human immunodeficiency virus 1 infected human MT4 cells assessed as protection against virus-induced cytopathogenicity treated before viral infection measured after 4 days by MTT assay. In kind it is functional, organism-based. To be noted: Human immunodeficiency virus 1, MT4, 96 h.
For series [7], the system named is Vesicular stomatitis virus. The experiment in a line: Antiviral activity against Vesicular stomatitis virus infected African green monkey Vero 76 cells assessed as reduction in plaque number treated after viral infection measured after 2 days by plaque reduction assay. In kind it is functional, organism-based. The conditions noted are these: 48 h.
For another series, the system named is Poliovirus 1. The experiment in a line: Antiviral activity against Human poliovirus 1 strain Sabin infected African green monkey Vero 76 cells assessed as reduction in plaque number treated after viral infection measured after 2 days by plaque reduction assay. In kind it is functional, organism-based. The conditions noted are these: Enterovirus C, 48 h.
Series [8] concerns Mammalian orthoreovirus 1. The experiment in a line: Antiviral activity against Mammalian orthoreovirus 1 infected Syrian hamster BHK-21 cells assessed as protection against virus-induced cytopathogenicity treated 1 hr after viral infection measured after 3-4 days by MTT method. In kind it is functional, organism-based. The conditions noted are these: Mammalian orthoreovirus 1, BHK-21.

A short description of series [9]: Cytotoxicity against Chlorocebus aethiops (African green monkey) Vero 76 cells assessed as inhibition of cell viability after 48 to 120 hr by MTT assay. Type of series: cell-based. To be noted: chlorocebus sabaeus.
The test system of another series is Vaccinia virus. The experiment in a line: Antiviral activity against Vaccinia virus infected African green monkey Vero 76 cells assessed as reduction in plaque number treated after viral infection measured after 3 days by plaque reduction assay. Type of series: functional, organism-based. To be noted: Orthopoxvirus vaccinia, 72 h.

pEC50: −log10 of the molar value.

As to `Oc1ccc(-c2nnc3nnc4c5ccccc5[nH]c4n23)cc1`, the negative logarithm of the EC50 (pEC50) (in series [1]; in the series on Human alphaherpesvirus 1; with Yellow fever virus; in series [2]; in the series on Coxsackievirus B2; in series [6]) was under 4.00 each time. Moreover, the negative logarithm of the EC50 (pEC50) (in [7]; with Poliovirus 1; in series [8]; in the series with Vaccinia virus) was under 4.00 throughout. Further, the CC50 in [3], in series [5] and in series [9] was over 100 µM throughout. Also, the CC50 at 96 h in [4] is over 100 µM.
As to `Clc1ccc(-c2nnc3nnc4c5ccccc5[nH]c4n23)cc1`, the pEC50 (in series [1]; in the series with Human alphaherpesvirus 1; in the series with Yellow fever virus; in [2]; in the series on Coxsackievirus B2; in [6]) was under 4.00 throughout. Moreover, the pEC50 (in series [7]; in the series with Poliovirus 1; in series [8]; in the series with Vaccinia virus) was under 4.00 throughout. Moreover, the cytotoxic concentration (CC50) in series [3], in series [5] and in [9] was over 100 µM each time. The 50% cytotoxic concentration (CC50) at 96 h in [4] was over 100 µM.
`O=[N+]([O-])c1cccc(-c2nnc3nnc4c5ccccc5[nH]c4n23)c1`: the negative-log EC50 (pEC50) (in series [1]; in the series on Human alphaherpesvirus 1; with Yellow fever virus; in series [2]; with Coxsackievirus B2; in series [6]) was under 4.00 in each case. Moreover, the negative-log EC50 (pEC50) (in series [7]; in the series with Poliovirus 1; in series [8]; in the series with Vaccinia virus) was under 4.00 in each case. Moreover, the CC50 in series [3], in series [5] and in series [9] was over 100 µM in each case. For the same compound, the CC50 at 96 h in [4] is over 100 µM.
On to `O=[N+]([O-])c1ccc(-c2nnc3nnc4c5ccccc5[nH]c4n23)cc1`, for which the pEC50 (in series [1]; in the series on Human alphaherpesvirus 1; with Yellow fever virus; in [2]; in the series on Coxsackievirus B2; in [6]) was under 4.00 in each case. The pEC50 (in series [7]; with Poliovirus 1; in [8]; in the series with Vaccinia virus) was under 4.00 in each case. Further, the CC50 in [3], in series [5] and in [9] was over 100 µM in each case. Further, in [4], the half-maximal cytotoxic concentration (CC50) at 96 h is over 100 µM.
Take `c1ccc(-c2nnc3nnc4c5ccccc5[nH]c4n23)cc1`: the pEC50 (in series [1]; with Human alphaherpesvirus 1; in the series on Yellow fever virus; in series [2]; with Coxsackievirus B2; in series [6]) was under 4.00 throughout. The pEC50 (in [7]; in the series with Poliovirus 1; in series [8]; with Vaccinia virus) was under 4.00 in each case. Moreover, the cytotoxic concentration (CC50) in [3], in series [5] and in [9] was over 100 µM in each case. Moreover, in series [4], the cytotoxic concentration (CC50) at 96 h was over 100 µM.
As to `O=[N+]([O-])c1ccccc1-c1nnc2nnc3c4ccccc4[nH]c3n12`, the negative-log EC50 (pEC50) in series [1] is under 4.00; in the series with Human alphaherpesvirus 1, under 4.00; in the series with Yellow fever virus it was under 4.00; in series [2], under 4.00; in the series with Coxsackievirus B2, 4.00; in [6] it was under 4.00. Also, the pEC50 (in [7]; in the series on Poliovirus 1; in series [8]; with Vaccinia virus) was under 4.00 throughout. The half-maximal cytotoxic concentration (CC50) in series [3], in series [5] and in [9] was over 100 µM throughout. Also, the half-maximal cytotoxic concentration (CC50) at 96 h in series [4] is over 100 µM.
For `c1ccc(Oc2cccc(-c3nnc4nnc5c6ccccc6[nH]c5n34)c2)cc1`, the pEC50 in [1] was under 4.00; with Human alphaherpesvirus 1, under 4.10; with Yellow fever virus, under 4.00; in series [2] it was under 4.10; with Coxsackievirus B2, under 4.10; in series [6] it was under 4.00. Also, the pEC50 in series [7] is under 4.10; in the series with Poliovirus 1 it was under 4.10; in series [8] it was under 4.00; in the series with Vaccinia virus it was under 4.10. Besides, the CC50 in series [3] was 100 µM; in [5], over 100 µM; in [9] it was 80 µM. In series [4], the CC50 at 96 h was over 100 µM.
Consider `COc1ccc(OC)c(-c2nnc3nnc4c5ccccc5[nH]c4n23)c1`, for which the pEC50 was under 4.92 in series [1]; under 4.82 in the series on Human alphaherpesvirus 1; under 4.52 in the series with Yellow fever virus; under 4.82 in series [2]; under 4.82 with Coxsackievirus B2; under 5.40 in [6]. The negative logarithm of the EC50 (pEC50) was under 4.82 in series [7], under 4.82 in the series with Poliovirus 1, under 4.52 in series [8] and under 4.82 in the series on Vaccinia virus. Also, the cytotoxic concentration (CC50) in series [3] turned out to be 30 µM; in series [5], 12 µM; in series [9] it was 15 µM. Further, in series [4], the CC50 at 96 h amounted to 4 µM.
Regarding `COc1cccc(-c2nnc3nnc4c5ccccc5[nH]c4n23)c1`, the pEC50 in [1] was under 4.19; with Human alphaherpesvirus 1, under 4.19; in the series on Yellow fever virus, under 4.00; in [2] it was under 4.19; in the series with Coxsackievirus B2, under 4.19; in [6], under 4.33. Moreover, the pEC50 in [7] was under 4.19; in the series with Poliovirus 1, under 4.19; in [8], under 4.00; in the series with Vaccinia virus it was under 4.19. In addition, the 50% cytotoxic concentration (CC50) is over 100 µM in series [3], 64 µM in series [5] and 65 µM in [9]. The CC50 at 96 h in [4] amounted to 47 µM.
As to `COc1ccccc1-c1nnc2nnc3c4ccccc4[nH]c3n12`, the pEC50 in series [1] was under 4.77; in the series with Human alphaherpesvirus 1, under 4.70; in the series with Yellow fever virus it was under 4.64; in [2] it was under 4.70; with Coxsackievirus B2 it was under 4.70; in series [6] it was under 5.30. Further, the negative logarithm of the EC50 (pEC50) in series [7] was under 4.70; with Poliovirus 1, under 4.70; in series [8], under 4.64; with Vaccinia virus, under 4.70. The cytotoxic concentration (CC50) in series [3] is 23 µM; in series [5] it was 17 µM; in [9], 20 µM. The 50% cytotoxic concentration (CC50) at 96 h in series [4] amounted to 5 µM.
On to `Oc1ccccc1-c1nnc2nnc3c4ccccc4[nH]c3n12`, for which the pEC50 was under 4.00 in [1]; under 4.15 in the series on Human alphaherpesvirus 1; under 4.00 with Yellow fever virus; under 4.15 in series [2]; under 4.15 with Coxsackievirus B2; under 4.00 in [6]. Also, the pEC50 was under 4.15 in series [7], under 4.15 with Poliovirus 1, under 4.00 in series [8] and under 4.15 in the series on Vaccinia virus. Further, the results for the half-maximal cytotoxic concentration (CC50) in [3], in [5] and in series [9] were over 100 µM, over 100 µM and 70 µM, respectively. Also, in [4], the cytotoxic concentration (CC50) at 96 h was over 100 µM.
As for `Oc1cccc(-c2nnc3nnc4c5ccccc5[nH]c4n23)c1`, the negative logarithm of the EC50 (pEC50) (in series [1]; in the series on Human alphaherpesvirus 1; in the series on Yellow fever virus; in series [2]; in the series with Coxsackievirus B2; in series [6]) was under 4.00 in each case. Further, the pEC50 (in series [7]; in the series with Poliovirus 1; in series [8]; with Vaccinia virus) was under 4.00 each time. The half-maximal cytotoxic concentration (CC50) in series [3], in series [5] and in series [9] was over 100 µM throughout. Also, the CC50 at 96 h in series [4] was over 100 µM.
For the compound `Cc1ccc(-c2nnc3nnc4c5ccccc5[nH]c4n23)cc1`, the negative logarithm of the EC50 (pEC50) (in series [1]; with Human alphaherpesvirus 1; in the series with Yellow fever virus; in [2]; with Coxsackievirus B2; in [6]) was under 4.00 throughout. In addition, the pEC50 (in series [7]; in the series on Poliovirus 1; in series [8]; in the series on Vaccinia virus) was under 4.00 in each case. Besides, the CC50 in [3] is over 100 µM; in [5], over 100 µM; in series [9] it was at least 100 µM. The CC50 at 96 h in [4] is over 100 µM.
Take `C[C@@]1(O)[C@H](O)[C@@H](CO)O[C@H]1n1cnc2c(=O)[nH]c(N)nc21` [2'-B-METHYL-GUANOSINE]: the figures for the negative logarithm of the EC50 (pEC50) (in [1]; in the series on Yellow fever virus) were 5.74 and 5.60, respectively.
Turning to `C#C[C@@]1(O)[C@H](O)[C@@H](CO)O[C@H]1n1ccc(N)nc1=O` [2'-ETHYNYL-D-CYTIDINE], the figures for the pEC50 in the series on Coxsackievirus B2 and in the series on Poliovirus 1 were 4.64 and 4.74, respectively.
For the compound `COc1c(C)c2c(c(O)c1C/C=C(\C)CCC(=O)O)C(=O)OC2` [MYCOPHENOLIC ACID], the negative-log EC50 (pEC50) in the series with Vaccinia virus was 5.74.
On to `Cc1cn([C@H]2C[C@H](N=[N+]=[N-])[C@@H](CO)O2)c(=O)[nH]c1=O` [ZIDOVUDINE], for which, in series [6], the pEC50 is 8.00.
